Each block holds one molecule with its values, some of them ahead of it.
What was measured:
[1] = target: T1, NtDBR (double bond reductase) (Nicotiana tabacum, UniProt Q9SLN8); assay: steady-state kinetics, NADPH oxidation; biotransformation with GC; format: biochemical
T1 construct: gene DBR; full-length, C-terminal His6-tag

[2] = target: T1, NtDBR (double bond reductase); assay: steady-state kinetics, NADPH oxidation; substrate inhibition at pH […]; format: biochemical
[3] = target: T1, NtDBR (double bond reductase); assay: steady-state kinetics, NADPH oxidation; rate at pH […]; format: biochemical
[4] = target: T1, NtDBR (double bond reductase); assay: steady-state kinetics, NADPH oxidation; kcat/Km at pH […]; format: biochemical
[5] = target: T1, NtDBR (double bond reductase); assay: X-ray crystal structure (ternary complex, soak); some reduction in biotransformation; format: binding
[6] = target: T1, NtDBR (double bond reductase); assay: X-ray crystal structure (binary complex, NADPH soak); steady-state kinetics; format: binding
[7] = target: T1, NtDBR (double bond reductase); assay: X-ray crystal structure (ternary complex, soak); format: binding

T1 sequence (Q9SLN8 whole entry): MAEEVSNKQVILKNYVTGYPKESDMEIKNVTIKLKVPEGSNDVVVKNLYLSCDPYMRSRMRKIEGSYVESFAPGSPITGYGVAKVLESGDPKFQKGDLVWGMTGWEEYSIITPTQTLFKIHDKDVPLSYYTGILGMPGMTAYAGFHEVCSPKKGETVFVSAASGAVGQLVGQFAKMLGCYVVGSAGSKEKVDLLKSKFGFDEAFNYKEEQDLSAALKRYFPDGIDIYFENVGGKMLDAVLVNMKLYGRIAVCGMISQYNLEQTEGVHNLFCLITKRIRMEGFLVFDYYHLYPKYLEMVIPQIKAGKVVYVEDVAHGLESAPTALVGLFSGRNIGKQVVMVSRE

Structure (SMILES): O=[N+]([O-])C1=CCCCC1 [1a, 1-nitrocyclohexene]
steady-state kinetics, NADPH oxidation; biotransformation with GC [1]: NtDBR shows a high preference for 1-nitrocyclohexene (1a) over typical LTD alkenal/one substrates

Ki [2]: 2.6 ± 0.6 mM
Structure (SMILES): CCC=C(C)C=O [2a, 2-methylpentenal]

steady-state kinetics, NADPH oxidation; rate at pH 7.3 [3]: 0.87 ± 0.07 s^–1
Structure (SMILES): CCCCCC/C=C/C=O [4a, trans-2-nonenal]

steady-state kinetics, NADPH oxidation; rate at pH 7.3 [3]: 0.52 ± 0.03 s^–1
Structure (SMILES): C=CC(=O)CCCCC [5a, 1-octen-3-one]

Structure (SMILES): O=C/C=C/c1ccccc1 [6a, trans-cinnamaldehyde]
steady-state kinetics, NADPH oxidation; kcat/Km at pH 5.4 [4]: 2.8

Structure (SMILES): COc1cc(C=CC=O)ccc1O [9a, 4-hydroxy-3-methoxycinnamaldehyde]
X-ray crystal structure (ternary complex, soak); some reduction in biotransforma [5]: have modeled in HMCA because this was the compound soaked into the crystals

Structure (SMILES): NC(=O)C1=CN([C@@H]2O[C@H](COP(=O)(O)OP(=O)(O)OC[C@H]3O[C@@H](n4cnc5c(N)ncnc54)[C@H](OP(=O)(O)O)[C@@H]3O)[C@@H](O)[C@H]2O)C=CC1 [NADPH]
X-ray crystal structure (binary complex, NADPH soak); steady-state kinetics [6]: Both the binary and ternary crystal structures showed clear |Fo| – |Fc| electron density for the NADP(H)

Structure (SMILES): NC(=O)c1ccc[n+]([C@@H]2O[C@H](COP(=O)(O)OP(=O)(O)OC[C@H]3O[C@@H](n4cnc5c(N)ncnc54)[C@H](OP(=O)(O)O)[C@@H]3O)[C@@H](O)[C@H]2O)c1 [NADP^+]
X-ray crystal structure (ternary complex, soak) [7]: showed clear |Fo| – |Fc| electron density for the presence of NADP^+ and a second ligand in subunit A only

Reference: article PMC4990313, “Biocatalytic Asymmetric Alkene Reduction: Crystal Structure and Characterization of a Double Bond Reductase from Nicotiana tabacum” (ACS Catalysis, 2013)
